SMILES strings stand for the structures. Where a name gives a salt, the structure may show the parent alone.

Sequence of GCN2 (Q9P2K8 whole entry): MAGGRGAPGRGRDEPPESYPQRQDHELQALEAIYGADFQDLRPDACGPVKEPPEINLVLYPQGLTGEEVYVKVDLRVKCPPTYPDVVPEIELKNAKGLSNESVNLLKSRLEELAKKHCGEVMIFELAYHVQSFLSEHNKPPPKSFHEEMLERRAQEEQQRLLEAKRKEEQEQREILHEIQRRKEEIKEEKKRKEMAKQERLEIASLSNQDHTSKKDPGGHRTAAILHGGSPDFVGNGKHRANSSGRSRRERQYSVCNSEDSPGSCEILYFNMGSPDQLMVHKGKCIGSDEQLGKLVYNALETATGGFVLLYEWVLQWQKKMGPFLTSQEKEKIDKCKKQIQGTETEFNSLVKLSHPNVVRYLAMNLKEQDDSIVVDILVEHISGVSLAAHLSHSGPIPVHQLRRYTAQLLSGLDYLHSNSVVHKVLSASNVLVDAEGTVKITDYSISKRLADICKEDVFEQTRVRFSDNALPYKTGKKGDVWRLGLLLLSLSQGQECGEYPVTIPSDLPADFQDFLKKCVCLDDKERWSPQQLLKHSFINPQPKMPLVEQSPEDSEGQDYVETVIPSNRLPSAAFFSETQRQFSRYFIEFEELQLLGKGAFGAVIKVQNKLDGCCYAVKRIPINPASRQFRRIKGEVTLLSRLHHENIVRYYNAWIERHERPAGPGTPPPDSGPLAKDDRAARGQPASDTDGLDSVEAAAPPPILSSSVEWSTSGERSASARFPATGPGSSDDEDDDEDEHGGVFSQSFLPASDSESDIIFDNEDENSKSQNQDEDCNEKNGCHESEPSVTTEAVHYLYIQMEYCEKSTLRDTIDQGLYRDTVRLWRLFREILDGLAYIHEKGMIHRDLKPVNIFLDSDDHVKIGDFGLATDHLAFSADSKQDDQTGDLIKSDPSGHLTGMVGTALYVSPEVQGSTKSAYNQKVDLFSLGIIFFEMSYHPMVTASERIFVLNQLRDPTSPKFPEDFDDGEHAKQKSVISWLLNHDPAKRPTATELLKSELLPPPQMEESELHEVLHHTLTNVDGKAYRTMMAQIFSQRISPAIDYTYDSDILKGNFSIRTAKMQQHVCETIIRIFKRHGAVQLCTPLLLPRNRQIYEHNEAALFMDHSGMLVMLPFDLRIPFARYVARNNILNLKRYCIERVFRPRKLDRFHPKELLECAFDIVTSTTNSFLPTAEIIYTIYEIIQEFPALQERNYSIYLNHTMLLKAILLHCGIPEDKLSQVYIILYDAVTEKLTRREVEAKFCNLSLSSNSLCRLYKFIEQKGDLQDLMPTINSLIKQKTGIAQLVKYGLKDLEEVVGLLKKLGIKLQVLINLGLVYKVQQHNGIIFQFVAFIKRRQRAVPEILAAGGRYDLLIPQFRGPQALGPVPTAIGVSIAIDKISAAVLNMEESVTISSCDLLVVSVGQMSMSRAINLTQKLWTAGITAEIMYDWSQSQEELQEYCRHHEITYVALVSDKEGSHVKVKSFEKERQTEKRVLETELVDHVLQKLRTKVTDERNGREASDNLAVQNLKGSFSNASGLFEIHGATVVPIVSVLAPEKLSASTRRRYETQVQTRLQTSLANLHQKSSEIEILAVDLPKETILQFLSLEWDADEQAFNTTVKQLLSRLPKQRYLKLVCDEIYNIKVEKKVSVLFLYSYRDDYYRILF

One assay addresses GCN2 (Homo sapiens, UniProt Q9P2K8). Briefly: GCN2 enzymatic endpoint assay: phosphorylation of GFP-eIF2α measured by TR-FRET (Lanthascreen). Type of assay: biochemical. As to conditions: GCN2 biochemical IC50; 4 nM GCN2, 2 μM ATP, 80 nM GFP-eIF2α, 90 min RT; read-out: GCN2 activity. The method, boiled down: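 2 μM ATP, 80 nM GFP-eIF2α, RT, 90 min; EDTA stop. Tb-anti-phospho antibody TR-FRET read, 520/495 nm ratio.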
In general terms: TR-FRET usually uses a lanthanide donor and a delayed reading to cut background.
`CNC(=O)[C@]1(C)CC[C@@H](Nc2ncc3c(Br)nn(-c4ccc(-c5nnc(C)s5)c(C#N)c4)c3n2)C1` [Example 69, (1R,3R)-3-((3-bromo-1-(3-cyano-4-(5-methyl-1,3,4-thiadiazol-2-yl)phenyl)-1H-pyrazolo[3,4-d]pyrimidin-6-yl)amino)-N,1-dimethylcyclopentane-1-carboxamide]: the IC50 is under 25 nM.

The same assay, now with this note: tested as described in Example 77; compound and/or hydrochloride, dihydrochloride or trifluoroacetic acid salt; read-out: IC 50 Activity.
As to `CNC(=O)[C@]1(C)CC[C@@H](Nc2ncc3c(Br)nn(-c4ccc(-c5nnc(C)[nH]5)cc4)c3n2)C1` [(1R,3R)-3-[[3-bromo-1-[4-(5-methyl-4H-1,2,4-triazol-3-yl)phenyl]pyrazolo[3,4-d]pyrimidin-6-yl]amino]-N,1-dimethyl-cyclopentanecarboxamide], the IC50 lay within 25 to 200 nM. Same read-out and setting: the result for `CNC(=O)[C@]1(COC)CC[C@@H](Nc2ncc3c(I)nn(-c4cc(F)c5ncccc5c4)c3n2)C1` [(1R,3R)-3-[[1-(8-fluoro-6-quinolyl)-3-iodo-pyrazolo[3,4-d]pyrimidin-6-yl]amino]-1-(methoxymethyl)-N-methyl-cyclopentane-carboxamide] reads under 25 nM. On the same count and under the same terms, the same measure for `C[C@H](N)c1cc(Cl)cc(-n2nc(Br)c3cnc(N[C@@H]4CC[C@@](C)(CO)C4)nc32)c1` [[(1R,3R)-3-[[1-[3-[(1S)-1-aminoethyl]-5-chloro-phenyl]-3-bromo-pyrazolo [3,4-d]pyrimidin-6-yl]amino]-1-methyl-cyclopentyl]methanol hydrochloride]: 25 to 200 nM; for `CNS(=O)(=O)C1CC[C@@H](Nc2ncc3c(Br)nn(-c4cc(Cl)cc([C@H](C)N)c4)c3n2)C1` (stereo partly drawn): 25 to 200 nM.

For the molecule `CNC(=O)[C@]1(C)CC[C@@H](Nc2ncc3c(Br)nn(-c4cc(CNS(C)(=O)=O)c5nccnc5c4)c3n2)C1` [(1R,3R)-3-[[3-bromo-1-[8-(methane-sulfonamidomethyl)quinoxalin-6-yl]pyrazolo[3,4-d]pyrimidin-6-yl]amino]-N,1-dimethyl-cyclopentanecarboxamide], the IC50 was 25 to 200 nM. As for `CNC(=O)[C@]1(C)CC[C@@H](Nc2ncc3c(Br)nn(-c4cc(C#N)cc(OC5CNC5)c4)c3n2)C1` [(1R,3R)-3-[[1-[3-(azetidin-3-yloxy)-5-cyano-phenyl]-3-bromo-pyrazolo[3,4-d]pyrimidin-6-yl]amino]-N,1-dimethyl-cyclopentanecarboxamide], the IC50 lay within 25 to 200 nM. On the same count and under the same terms, the same measure for `COC[C@H](C)NC(=O)[C@@H]1CCC[C@@H](Nc2ncc3c(Br)nn(-c4ccc5ncccc5c4)c3n2)C1` [(1R,3R)-3-((3-bromo-1-(quinolin-6-yl)-1H-pyrazolo[3,4-d]pyrimidin-6-yl)amino)-N-((S)-1-methoxypropan-2-yl)cyclohexane-1-carboxamide]: 500 to 1000 nM; for `CNC(=O)C1(C)CC[C@@H](Nc2ncc3c(Br)nn(-c4cc(C)cc(CO)c4)c3n2)C1` (stereo partly drawn) [(3R)-3-[[3-bromo-1-[3-(hydroxymethyl)-5-methyl-phenyl]pyrazolo[3,4-d]pyrimidin-6-yl]amino]-N,1-dimethyl-cyclopentanecarboxamide]: 25 to 200 nM. For the molecule `CS(=O)(=O)C1CC[C@@H](Nc2ncc3c(Br)nn(-c4cc(CCN)c5nccnc5c4)c3n2)C1` (stereo partly drawn) [1-[8-(2-aminoethyl)quinoxalin-6-yl]-3-bromo-N-[(1R)-3-methylsulfonylcyclo-pentyl]pyrazolo[3,4-d]pyrimidin-6-amine], the IC50 is under 25 nM. As to `CNC(=O)[C@]1(C)CC[C@@H](Nc2ncc3c(Br)nn(-c4ccc5c(c4)OCC(=O)N5CC(F)(F)F)c3n2)C1` [(1R,3R)-3-[[3-bromo-1-[3-oxo-4-(2,2,2-trifluoroethyl)-1,4-benzoxazin-7-yl]pyrazolo [3,4-d]pyrimidin-6-yl]amino]-N,1-dimethyl-cyclopentanecarboxamide], the IC50 lay within 25 to 200 nM. The same measure, in the same setting: the result for `CNS(=O)(=O)C1CC[C@@H](Nc2ncc3c(Br)nn(-c4ccc(-c5nnc(C)s5)c(CCC#N)c4)c3n2)C1` (stereo partly drawn) [(3R)-3-[[3-bromo-1-[3-(2-cyanoethyl)-4-(5-methyl-1,3,4-thiadiazol-2-yl)phenyl]pyrazolo[3,4-d]pyrimidin-6-yl]amino]-N-methyl-cyclopentanesulfonamide] reads 25 to 200 nM; that for `Cc1nnc(-c2ccc(-n3nc(Br)c4cnc(N[C@@H]5CC[C@@H](NC(=O)C(C)C)C5)nc43)cc2)s1` [N-[(1R,3R)-3-[[3-bromo-1-[4-(5-methyl-1,3,4-thiadiazol-2-yl)phenyl]pyrazolo [3,4-d]pyrimidin-6-yl]amino]cyclopentyl]-2-methyl-propanamide], 25 to 200 nM; that for `CNC(=O)[C@]1(C)CC[C@@H](Nc2ncc3c(Br)nn(-c4ccc5ncn(CCO)c(=O)c5c4)c3n2)C1`, 25 to 200 nM. Take `CNC(=O)[C@]1(C)CC[C@@H](Nc2ncc3c(Br)nn(-c4ccc(-c5nnc(C)s5)c(CCNCC(F)(F)F)c4)c3n2)C1` [(1R,3R)-3-[[3-bromo-1-[4-(5-methyl-1,3,4-thiadiazol-2-yl)-3-[2-(2,2,2-trifluoroethylamino)ethyl]phenyl]pyrazolo[3,4-d]pyrimidin-6-yl]amino]-N,1-dimethyl-cyclopentanecarboxamide]: the IC50 was 25 to 200 nM. Regarding `Cc1nnc(-c2ccc(-n3nc(Br)c4cnc(N[C@@H]5CC[C@@](C)(N)C5)nc43)cc2CCC#N)s1`, the IC50 fell in the range of 25 to 200 nM. The same measure, in the same setting: the same measure for `CNC(=O)[C@]1(CC(F)F)CC[C@@H](Nc2ncc3c(Br)nn(-c4ccc5ncncc5c4)c3n2)C1` [(1R,3R)-3-[(3-bromo-1-quinazolin-6-yl-pyrazolo[3,4-d]pyrimidin-6-yl)amino]-1-(2,2-difluoroethyl)-N-methyl-cyclopentanecarboxamide]: 25 to 200 nM. As to `CNC(=O)[C@]1(C)CC[C@@H](Nc2ncc3c(Br)nn(-c4cc(F)cc(CO)c4)c3n2)C1` [(1R,3R)-3-[[3-bromo-1-[3-fluoro-5-(hydroxymethyl)phenyl]pyrazolo[3,4-d]pyrimidin-6-yl]amino]-N,1-dimethyl-cyclopentanecarboxamide], the IC50 lay in the range of 25 to 200 nM. Take `CNC(=O)[C@]1(C)CC[C@@H](Nc2ncc3c(Br)nn(-c4ccc5c(c4)CCN(C(=O)C4CN(C)C4)C5)c3n2)C1` [(1R,3R)-3-[[3-bromo-1-[2-(1-methylazetidine-3-carbonyl)-3,4-dihydro-1H-isoquinolin-6-yl]pyrazolo[3,4-d]pyrimidin-6-yl]amino]-N,1-dimethyl-cyclopentanecarboxamide]: the IC50 is 25 to 200 nM. `O[C@@H]1CC[C@@H](Nc2ncc3c(Br)nn(-c4cc(F)c5ncccc5c4)c3n2)C1` [(1R,3R)-3-[[3-bromo-1-(8-fluoro-6-quinolyl)pyrazolo[3,4-d]pyrimidin-6-yl]amino]cyclopentanol]: the IC50 fell in the range of 25 to 200 nM. For `CNC(=O)[C@]1(C)CC[C@@H](Nc2ncc3c(Br)nn(-c4ccc5c(c4)CCC(=O)N5CCO)c3n2)C1` [(1R,3R)-3-[[3-bromo-1-[1-(2-hydroxy-ethyl)-2-oxo-3,4-dihydroquinolin-6-yl]pyrazolo[3,4-d]pyrimidin-6-yl]amino]-N,1-dimethyl-cyclopentanecarboxamide], the IC50 was 25 to 200 nM. With `CC(C)NC(=O)[C@]1(C)CC[C@@H](Nc2ncc3c(Br)nn(-c4cc(F)c5ncccc5c4)c3n2)C1` [(1R,3R)-3-[[3-bromo-1-(8-fluoro-6-quinolyl)pyrazolo[3,4-d]pyrimidin-6-yl]amino]-N-isopropyl-1-methyl-cyclopentanecarboxamide], the IC50 was under 25 nM.

For `O=C([C@@H]1CC[C@@H](Nc2ncc3c(Br)nn(-c4ccc5ncccc5c4)c3n2)C1)N1CCC(O)(CO)CC1` [((1R,3R)-3-((3-bromo-1-(quinolin-6-yl)-1H-pyrazolo[3,4-d]pyrimidin-6-yl)amino)cyclo-pentyl)(4-hydroxy-4-(hydroxymethyl)piperidin-1-yl)methanone], the IC50 lay in the range of 25 to 200 nM. In the case of `CNC(=O)[C@]1(C)CC[C@@H](Nc2ncc3c(Br)nn(-c4ccc(-c5nnc(C)s5)c(CC(N)C(F)(F)F)c4)c3n2)C1` (stereo partly drawn) [(1R,3R)-3-[[1-[3-(2-amino-3,3,3-trifluoro-propyl)-4-(5-methyl-1,3,4-thiadiazol-2-yl)phenyl]-3-bromo-pyrazolo[3,4-d]pyrimidin-6-yl]amino]-N,1-dimethyl-cyclopentane-carboxamide], the IC50 was in the range of 25 to 200 nM. Regarding `CNC(=O)[C@@H]1CC[C@@H](Nc2ncc3c(Br)nn(-c4cc(OC(F)(F)F)c5ncccc5c4)c3n2)C1` [(1R,3R)-3-((3-bromo-1-(8-(trifluoro-methoxy)quinolin-6-yl)-1H-pyrazolo [3,4-d]pyrimidin-6-yl)amino)-N-methylcyclopentane-1-carboxamide], the IC50 lay within 25 to 200 nM. As to `C[C@]1(C(=O)O)C[C@H](Nc2ncc3c(Br)nn(-c4ccc5ncccc5c4)c3n2)C1`, the IC50 was 200 to 500 nM. Turning to `CNC(=O)[C@]1(C)CC[C@@H](Nc2ncc3c(Br)nn(-c4ccc(-c5ncco5)c(NC(=O)C5CCNCC5)c4)c3n2)C1` [N-[5-[3-bromo-6-[[(1R,3R)-3-methyl-3-(methylcarbamoyl)cyclopentyl]amino]pyrazolo[3,4-d]pyrimidin-1-yl]-2-oxazol-2-yl-phenyl]piperidine-4-carboxamide], the IC50 is under 25 nM. With `CNC(=O)[C@]1(C)CC[C@@H](Nc2ncc3c(Br)nn(-c4ccc5c(c4)CN(C(=O)C4CN(C(=O)C(F)(F)F)C4)CC5)c3n2)C1` [(1R,3R)-3-[[3-bromo-1-[2-[1-(2,2,2-trifluoroacetyl)azetidine-3-carbonyl]-3,4-dihydro-1H-isoquinolin-7-yl]pyrazolo[3,4-d]pyrimidin-6-yl]amino]-N,1-dimethyl-cyclopentanecarboxamide], the IC50 was in the range of 25 to 200 nM.

As to `CNC(=O)[C@]1(C)CC[C@@H](Nc2ncc3c(Br)nn(-c4ccc5c(c4)n(C)c(=O)c(=O)n5C)c3n2)C1` [(1R,3R)-3-[[3-bromo-1-(1,4-dimethyl-2,3-dioxo-quinoxalin-6-yl)pyrazolo [3,4-d]pyrimidin-6-yl]amino]-N,1-dimethyl-cyclopentanecarboxamide], the IC50 lay in the range of 25 to 200 nM. Same read-out and setting: the result for `CNC(=O)[C@]1(C)CCC(Nc2ncc3c(Br)nn(-c4ccc(C(N)=O)c(Cl)c4)c3n2)C1` (stereo partly drawn) [4-[3-bromo-6-[[(3R)-3-methyl-3-(methylcarbamoyl)cyclopentyl]amino]pyrazolo[3,4-d]pyrimidin-1-yl]-2-chloro-benzamide] reads 25 to 200 nM.

Values taken from US11046699B2, “Pyrazolo-pyrimidin-amino-cycloalkyl compounds and their therapeutic uses” (RAPT THERAPEUTICS, INC., priority 2018, dated 2021).
